As usually defined, the EC50 is the concentration needed to bring the measured effect to its halfway point.

We go through 37 compounds from patent US20200223837A1, “BENZOFURAN AMIDES AND HETEROAROMATIC ANALOGUES THEREOF FOR USE IN THERAPY” (European Molecular Biology Laboratory, priority 2017, published 2020).

This assay has as its system EGR1 promoter. Nature of the assay: EGR1 reporter assay (luciferase) in genomically engineered HeLa cell line. It counts as cell-based. The following applies: Homo sapiens; EGR1 reporter HeLa cells, luciferase activity after 24 hours with compound. An excerpt:
The compounds of the present invention can be characterized for their effect on expression of egr1 (early growth response protein 1) using an EGR1 reporter cell line.
The HeLa cell line was genetically modified to provide a simple, robust and highly reproducible cell-based assay reporting the activity of an endogenous EGR1 promoter. In brief, a construct encoding EGFP and luciferase proteins, separated by a self-cleaving P2A peptide was inserted, using CRISPR, immediately downstream (3′) to the promoter of endogenous EGR1. Upon treatment with compounds, cells express EGFP and luciferase from EGR1 promoter, which can be readily detected either in live cells using microscopy or cytometry, or through detection of luciferase activity in cell lysates.
To achieve stable genomic integration of an EGR1-promoter dual reporter, two plasmids were generated: one contained the reporter construct (eGFP-P2A-luciferase) flanked by homology arms that direct insertion into genomic DNA, by homologous recombination, of a break in genomic DNA generated by guide RNA targeted cleavage by Cas9 endonuclease. The gRNA expressing plasmid was based on px330 (56), into which a gRNA sequence that targets a break in gDNA close to the start codon of EGR1 was cloned. The left homology arm (encoding part of EGR1 promoter adjacent to its start codon) and right homology arm (encoding […] of start codon of EGR1) were cloned from gDNA using the following primers: […]
The present compounds can be tested, e.g. by using a HeLa cell line carrying an EGR1 reporter construct which allows for expression of luciferase and eGFP (enhanced GFP) controlled by the EGR1 promoter. For this reporter cells are seeded in the wells of a 384 well microtiter plate at a density of 2000 cells per well in 48 μl of DMEM supplemented with 4.5 g/l glucose, 2 mM glutamine and 10% FCS and are incubated for 24 hours at 37° C. with 5% CO2 and 95% humidity. Then, an eleven point 1:3 serial dilution of each test compound, from an initial concentration of 100 μM, is prepared in DMSO and the dilutions are added to the cells in a volume of 2 μl per well. The cells are incubated for a further 24 hours, after which the luciferase activity of each well is determined by addition of 25 μl of luciferase substrate reaction mixture (Britelite™ plus, Perkin Elmer) and measuring the bioluminescence light output (EnVision Xcite plate reader, PerkinElmer).
The compound of example 64 served as a positive control for this EGR1 reporter assay. The compound of example 64 had been identified in an initial high throughput screening campaign.
`O=C(Cc1coc2cc(Cl)ccc12)Nc1ncc(C(F)(F)F)[nH]1` [Example 38, 2-(6-Chlorobenzofuran-3-yl)-N-[5-(trifluoromethyl)-1H-imidazol-2-yl]acetamide]: the EC50 lay in the range of 0.01 to 10 µM.
With `O=C(Cc1coc2c(F)c(F)ccc12)Nc1ncc(C(F)(F)F)s1` [Example 39, 2-(6,7-Difluorobenzofuran-3-yl)-N-[5-(trifluoromethyl)thiazol-2-yl]acetamide] the figure was 0.01 to 10 µM; with `CCc1ccc2c(CC(=O)Nc3ncc(C)s3)coc2c1` [Example 40, 2-(6-Ethylbenzofuran-3-yl)-N-(5-methylthiazol-2-yl)acetamide], 0.01 to 10 µM; with `COc1ccc2nc(NC(=O)Cc3coc4cc(C)ccc34)sc2c1` [Example 41, N-(6-Methoxy-1,3-benzothiazol-2-yl)-2-(6-methylbenzofuran-3-yl)acetamide], 0.01 to 10 µM.
Then `Cc1ccc2c(CC(=O)Nc3nccs3)coc2c1` [Example 42, 2-(6-Methylbenzofuran-3-yl)-N-thiazol-2-yl-acetamide], with 0.01 to 10 µM; and `COc1ccc2c(CC(=O)Nc3ncc(C)s3)coc2c1` [Example 43, 2-(6-Methoxybenzofuran-3-yl)-N-(5-methylthiazol-2-yl)acetamide], with 0.01 to 10 µM.
On to `O=C(CCc1coc2ccccc12)Nc1ncc(C(F)(F)F)s1` [Example 44, 3-(Benzofuran-3-yl)-N-[5-(trifluoromethyl)thiazol-2-yl]propanamide], for which the EC50 is 0.01 to 10 µM.
As for `Cc1cnc(NC(=O)Cc2coc3cc(C)c(C)cc23)s1` [Example 45, 2-(5,6-Dimethylbenzofuran-3-yl)-N-(5-methylthiazol-2-yl)acetamide], the EC50 was in the range of 0.01 to 10 µM.
Consider `N#Cc1cnc(NC(=O)Cc2coc3cc(Cl)ccc23)s1` [Example 46, 2-(6-Chlorobenzofuran-3-yl)-N-(5-cyanothiazol-2-yl)acetamide], for which the half-maximal effective concentration (EC50) was in the range of 0.01 to 10 µM.
With `COC(=O)c1cnc(NC(=O)Cc2coc3c(C)c(C)ccc23)s1` [Example 47, Methyl 2-[[2-(6,7-dimethylbenzofuran-3-yl)acetyl]amino]thiazole-5-carboxylate] the figure was 0.01 to 10 µM; with `Cc1ccc2c(CC(=O)Nc3ncc(C)s3)coc2c1` [Example 48, 2-(6-Methylbenzofuran-3-yl)-N-(5-methylthiazol-2-yl)acetamide], 0.01 to 10 µM; with `O=C(Cc1coc2c(Cl)c(Cl)ccc12)Nc1ncc(C(F)(F)F)[nH]1` [Example 49, 2-(6,7-Dichlorobenzofuran-3-yl)-N-[5-(trifluoromethyl)-1H-imidazol-2-yl]acetamide], 0.01 to 10 µM.
Take `COc1ccc(-c2csc(NC(=O)Cc3coc4cc(C)ccc34)n2)cc1OC` [Example 50, N-[4-(3,4-Dimethoxyphenyl)thiazol-2-yl]-2-(6-methylbenzofuran-3-yl)acetamide]: the half-maximal effective concentration (EC50) is 0.01 to 10 µM.
With `COc1ccc2c(CC(=O)Nc3nc(-c4ccc(CCC(C)NC(C)=O)cc4)cs3)coc2c1` (stereo not shown) [Example 51, N-[4-[4-(3-Acetamidobutyl)phenyl]thiazol-2-yl]-2-(6-methoxybenzofuran-3-yl)acetamide] the figure was 0.01 to 10 µM; with `CCc1ccc2c(CC(=O)Nc3nc(-c4ccc(NC(C)=O)cc4)cs3)coc2c1` [Example 52, N-[4-(4-Acetamidophenyl)thiazol-2-yl]-2-(6-ethylbenzofuran-3-yl)acetamide], 0.01 to 10 µM.
On to `O=C(Cc1coc2c(Cl)cccc12)Nc1ncc(C(F)(F)F)s1` [Example 53, 2-(7-Chlorobenzofuran-3-yl)-N-[5-(trifluoromethyl)thiazol-2-yl]acetamide], for which the EC50 lay within 0.01 to 10 µM.
Then `COc1ccc2c(CC(=O)Nc3nc4c(s3)CCC4)coc2c1` [Example 54, N-(5,6-Dihydro-4H-cyclopenta[d]thiazol-2-yl)-2-(6-methoxybenzofuran-3-yl)acetamide], with 0.01 to 10 µM.
With `Cc1ccc2c(CC(=O)Nc3ncc(C(F)(F)F)[nH]3)coc2c1C` [Example 55, 2-(6,7-Dimethylbenzofuran-3-yl)-N-[5-(trifluoromethyl)-1H-imidazol-2-yl]acetamide] the figure was 0.01 to 10 µM; with `COCc1cnc(NC(=O)Cc2coc3cc(Cl)ccc23)s1` [Example 56], 0.01 to 10 µM.
Then `Cc1cnc(NC(=O)Cc2coc3c(Cl)c(C)ccc23)[nH]1` [Example 57, 2-(7-Chloro-6-methyl-benzofuran-3-yl)-N-(5-methyl-1H-imidazol-2-yl)acetamide], with 0.01 to 10 µM; and `Cc1ccc2c(CC(=O)Nc3ncc(C(F)(F)F)[nH]3)coc2c1Cl` [Example 58, 2-(7-Chloro-6-methyl-benzofuran-3-yl)-N-[5-(trifluoromethyl)-1H-imidazol-2-yl]acetamide], with 0.01 to 10 µM; and `Cc1ccc2c(CC(=O)Nc3ncc(C#N)s3)coc2c1Cl` [Example 59, 2-(7-Chloro-6-methyl-benzofuran-3-yl)-N-(5-cyano-1H-thiazol-2-yl)acetamide], with 0.01 to 10 µM.
With `O=C(Cc1coc2cc(Cl)ccc12)Nc1ncc(C(F)(F)F)s1` [Example 60, 2-(6-Chlorobenzofuran-3-yl)-N-[5-(trifluoromethyl)thiazol-2-yl]acetamide], the EC50 was in the range of 0.01 to 10 µM.
Turning to `Cc1ccc2c(CCC(=O)Nc3ncc(C(F)(F)F)s3)coc2c1C` [Example 61, 3-(6,7-Dimethylbenzofuran-3-yl)-N-[5-(trifluoromethyl)thiazol-2-yl]propanamide], the half-maximal effective concentration (EC50) lay within 0.01 to 10 µM.
Then `Cc1ccc2c(CC(=O)Nc3ncc(C#N)s3)coc2c1C` [Example 62, N-(5-Cyanothiazol-2-yl)-2-(6,7-dimethylbenzofuran-3-yl)acetamide], with 0.01 to 10 µM; and `O=C(Cc1coc2cc3c(cc12)CCC3)Nc1ncc(C(F)(F)F)s1` [Example 63, 2-(6,7-Dihydro-5H-cyclopenta[f]benzofuran-3-yl)-N-[5-(trifluoromethyl)thiazol-2-yl]acetamide], with 0.01 to 10 µM.
Then `COCc1cnc(NC(=O)Cc2coc3cc4c(cc23)CCC4)s1` [Example 65, 2-(6,7-Dihydro-5H-cyclopenta[f]benzofuran-3-yl)-N-[5-(methoxymethyl)thiazol-2-yl]acetamide], with 0.01 to 10 µM.
Then `CC(C(=O)Nc1ncc(C(F)(F)F)s1)c1coc2cc(Cl)ccc12` (stereo not shown) [Example 66, 2-(6-Chlorobenzofuran-3-yl)-N-[5-(trifluoromethyl)thiazol-2-yl]propanamide], with 0.01 to 10 µM; and `COc1ccc(-c2csc(NC(=O)Cc3coc4cc(C)ccc34)n2)cc1Cl` [Example 67, N-[4-(3-Chloro-4-methoxy-phenyl)thiazol-2-yl]-2-(6-methylbenzofuran-3-yl)acetamide], with 0.01 to 10 µM.
In the case of `COc1ccc2c(CC(=O)N(c3ccc(C(C)=O)cc3)c3nc4ccccc4s3)coc2c1` [Example 68, N-(4-Acetylphenyl)-N-(1,3-benzothiazol-2-yl)-2-(6-methoxybenzofuran-3-yl)acetamide], the EC50 was in the range of 0.01 to 10 µM.
With `CCc1ccc2c(CC(=O)N(c3ccc(C(C)=O)cc3)c3nc4ccccc4s3)coc2c1` [Example 69, N-(4-Acetylphenyl)-N-(1,3-benzothiazol-2-yl)-2-(6-ethylbenzofuran-3-yl)acetamide] the figure was 0.01 to 10 µM; with `C=CCN(C(=O)Cc1coc2cc(C)ccc12)c1nc(-c2ccc(S(C)(=O)=O)cc2)cs1` [Example 70, N-Allyl-2-(6-methylbenzofuran-3-yl)-N-[4-(4-methylsulfonylphenyl)thiazol-2-yl]acetamide], 0.01 to 10 µM; with `COc1ccc(-c2csc(NC(=O)Cc3coc4cc(OC)ccc34)n2)cc1` [Example 71, 2-(6-Methoxybenzofuran-3-yl)-N-[4-(4-methoxyphenyl)thiazol-2-yl]acetamide], 0.01 to 10 µM.
In the case of `N#Cc1cnc(NC(=O)Cc2coc3c(Cl)c(Cl)ccc23)s1` [Example 73, N-(5-Cyanothiazol-2-yl)-2-(6,7-dichlorobenzofuran-3-yl)acetamide], the EC50 lay within 0.01 to 10 µM.
In the case of `COc1ccc2c(CC(=O)Nc3nc(-c4ccc5c(c4)CCO5)cs3)coc2c1` [Example 74, N-[4-(2,3-Dihydrobenzofuran-5-yl)thiazol-2-yl]-2-(6-methoxybenzofuran-3-yl)acetamide], the concentration for a half-maximal effect (EC50) was in the range of 0.01 to 10 µM.
With `Cc1cnc(NC(=O)Cc2coc3c(Cl)c(Cl)ccc23)s1` [Example 75, 2-(6,7-Dichlorobenzofuran-3-yl)-N-(5-methylthiazol-2-yl)acetamide], the EC50 is 0.01 to 10 µM.
As to `COc1ccc2c(CC(=O)Nc3nc(-c4ccc(C5CCCCC5)cc4)cs3)coc2c1` [Example 76, N-[4-(4-Cyclohexylphenyl)thiazol-2-yl]-2-(6-methoxybenzofuran-3-yl)acetamide], the EC50 is 0.01 to 10 µM.
